US8129398B2 (priority 2008, dated 2012)

target: T1, HIV-integrase (Human immunodeficiency virus type 1 group M subtype B, UniProt P12497); experiment: HIV-Integrase Inhibition Activity (SPA bead integration assay with P33 labeled target DNA); assay type: biochemical; settings: recombinant integrase, class symbols; read-out: in vitro activity
T1 construct: Recombinant integrase (0.26 ng) was incubated with the beads
Procedure: HIV-Integrase Inhibition Activity. To evaluate in-vitro activity against HIV-integrase, 5 pmole of biotin labeled substrate DNA was bound to 100 μg of Streptavidin coated PVT SPA beads (Amersham Pharmacia Biotech). Recombinant integrase (0.26 ng) was incubated with the beads for 90 min at 37° C. Unbound enzyme was removed by washing the complex followed by addition of inhibitors and 0.1 fmol of P33 labeled target DNA. The reaction was stopped by adding EDTA to a final concentration of 10 mM. Samples were counted in TopCountNXT (Packard) and the CPM was used as a measure of integration. The reaction condition was as described in A. Engelman and R. Craigie, J. Virol. 69, 5908-5911 (1995). The sequences of substrate and target DNA were described in Nucleic Acid Research 22, 1121-1122 (1994). Activity equal to A refers to a compound having IC50=<10 nM while B and C denote compounds having […] and IC50>100 nM respectively.

| Compound | IC50 |
| --- | --- |
| CN(C)C(=O)C(=O)NC12CCCC(Cn3c1nc(C(=O)NCc1ccc(F)cc1)c(O)c3=O)C2 (stereo not shown) [Example 186, Ethanediamide, N′-[2-[[[(4-fluorophenyl)methyl]amino]carbonyl]-7,8,9,10-tetrahydro-3-hydroxy-4-oxo-7,11-methano-4H-pyrimido[1,2-a]azocin-11(6H)-yl]-N,N-dimethyl-] | < 0.01 µM |
| Cc1cc(C(=O)NC23CCC(CC2)Cn2c3nc(C(=O)NCc3ccc(F)cc3)c(O)c2=O)nn1C(C)(C)C [Example 240] | < 0.01 µM |
| Cc1cc(CNC(=O)c2nc3n(c(=O)c2O)CC2CCC3(NC(=O)Nc3ccccn3)CC2)ccc1F [Example 325, 7,10-Ethanopyrimido[1,2-a]azepine-2-carboxamide, N-[(4-fluoro-3-methylphenyl)methyl]-4,6,7,8,9,10-hexahydro-3-hydroxy-4-oxo-10-[[(2-pyridinylamino)carbonyl]amino]-] | < 0.01 µM |
| Cc1cc(CNC(=O)c2nc3n(c(=O)c2O)CC[C@H]2CC[C@]3(NC(=O)C(=O)N(C)C)C2)ccc1F [Example 416, Ethanediamide, N′-[(8R,11S)-2-[[[(4-fluoro-3-methylphenyl)methyl]amino]carbonyl]-7,8,9,10-tetrahydro-3-hydroxy-4-oxo-8,11-methano-4H-pyrimido[1,2-a]azocin-11(6H)-yl]-N,N-dimethyl-] | < 0.01 µM |
| COc1ccc(CCNC(=O)c2nc3n(c(=O)c2O)CC2CCC3(NC(=O)C(=O)N(C)C)CC2)cc1 [Example 346] | > 0.1 µM |
| CN(C)C(=O)C(=O)NC12CCC(CC1)Cn1c2nc(C(=O)NCCCc2ccc(Cl)c(Cl)c2)c(O)c1=O [Example 131, N′-(2-((3-(3,4-Dichlorophenyl)propyl)carbamoyl)-3-hydroxy-4-oxo-6,7,8,9-tetrahydro-7,10-ethanopyrimido[1,2-a]azepin-10(4H)-yl)-N,N-dimethylethanediamide] | 0.01 to 0.1 µM |
| Cn1cnc(C(=O)NC23CCC(CC2)Cn2c3nc(C(=O)NCc3ccc(F)cc3)c(O)c2=O)n1 [Example 54, N-(4-Fluorobenzyl)-3-hydroxy-10-(((1-methyl-1H-1,2,4-triazol-3-yl)carbonyl)amino)-4-oxo-4,6,7,8,9,10-hexahydro-7,10-ethanopyrimido[1,2-a]azepine-2-carboxamide] | < 0.01 µM |
| CN(C)C(=O)C(=O)NC12CCC(CC1)Cn1c2nc(C(=O)NCc2ccc(F)cc2S(C)(=O)=O)c(O)c1=O [Example 117, N′-(2-((4-Fluoro-2-(methylsulfonyl)benzyl)carbamoyl)-3-hydroxy-4-oxo-6,7,8,9-tetrahydro-7,10-ethanopyrimido[1,2-a]azepin-10(4H)-yl)-N,N-dimethylethanediamide] | 0.01 to 0.1 µM |
| O=C(NC12CCC(CCn3c1nc(C(=O)NCc1ccc(F)cc1)c(O)c3=O)C2)C(=O)N1CC[C@H](F)C1 (stereo partly drawn) [Example 207, 8,11-Methano-4H-pyrimido[1,2-a]azocine-2-carboxamide, N-[(4-fluorophenyl)methyl]-11-[[2-[(3S)-3-fluoro-1-pyrrolidinyl]-1,2-dioxoethyl]amino]-6,7,8,9,10,11-hexahydro-3-hydroxy-4-oxo-] | < 0.01 µM |
| Cc1ncoc1C(=O)NC12CCC(CC1)Cn1c2nc(C(=O)NCc2ccc(F)cc2)c(O)c1=O [Example 34, N-(4-Fluorobenzyl)-3-hydroxy-10-(((4-methyl-1,3-oxazol-5-yl)carbonyl)amino)-4-oxo-4,6,7,8,9,10-hexahydro-7,10-ethanopyrimido[1,2-a]azepine-2-carboxamide] | < 0.01 µM |
| CN(C)C(=O)C(=O)NC12CCC(CC1)Cn1c2nc(C(=O)NCC2CCCO2)c(O)c1=O (stereo not shown) [Example 338] | > 0.1 µM |
| CN(C)C(=O)C(=O)NC12CCC(CC1)Cn1c2nc(C(=O)NCc2cccc(-n3cccc3)c2)c(O)c1=O [Example 126, N′-(3-Hydroxy-4-oxo-2-((3-(1H-pyrrol-1-yl)benzyl)carbamoyl)-6,7,8,9-tetrahydro-7,10-ethanopyrimido[1,2-a]azepin-10(4H)-yl)-N,N-dimethylethanediamide] | < 0.01 µM |
| O=C(NC12CCC(CC1)Cn1c2nc(C(=O)NCc2ccc(F)cc2)c(O)c1=O)c1ccncc1 [Example 35, N-(4-Fluorobenzyl)-3-hydroxy-4-oxo-10-((4-pyridinylcarbonyl)amino)-4,6,7,8,9,10-hexahydro-7,10-ethanopyrimido[1,2-a]azepine-2-carboxamide] | < 0.01 µM |
| CN(C)C(=O)C(=O)NC12CCC(CC1)Cn1c2nc(C(=O)NCCNc2ccccc2)c(O)c1=O [Example 342] | 0.01 to 0.1 µM |
| CC(=O)N1CCCC[C@H]1C(=O)NC12CCC(CC1)Cn1c2nc(C(=O)NCc2ccc(F)cc2)c(O)c1=O [Example 265, 7,10-Ethanopyrimido[1,2-a]azepine-2-carboxamide, 10-[[[(2S)-1-acetyl-2-piperidinyl]carbonyl]amino]-N-[(4-fluorophenyl)methyl]-4,6,7,8,9,10-hexahydro-3-hydroxy-4-oxo-] | < 0.01 µM |
| CN(CCF)C(=O)C(=O)NC12CCC(CCn3c1nc(C(=O)NCc1ccc(F)cc1)c(O)c3=O)C2 (stereo not shown) [Example 209, Ethanediamide, N-(2-fluoroethyl)-N′-[2-[[[(4-fluorophenyl)methyl]amino]carbonyl-7,8,9,10-tetrahydro-3-hydroxy-4-oxo-8,11-methano-4H-pyrimido[1,2-a]azocin-1](6H)-yl]-N-methyl] | < 0.01 µM |
| O=C(NCc1ccc(F)cc1)c1nc2n(c(=O)c1O)CC1CCC2(NC(=O)C2CCCN2S(=O)(=O)c2ccco2)CC1 (stereo not shown) [Example 410] | < 0.01 µM |
| O=C(NC12CCC(CCn3c1nc(C(=O)NCc1ccc(F)cc1)c(O)c3=O)C2)C(=O)N1CC(F)(F)C1 (stereo not shown) [Example 202, 8,1,1-Methano-4H-pyrimido[1,2-a]azocine-2-carboxamide, 1′-[[2-(3,3-difluoro-1-azetidinyl)-1,2-dioxoethyl]amino]-N-[(4-fluorophenyl)methyl]-6,7,8,9,10,11-hexahydro-3-hydroxy-4-oxo-] | < 0.01 µM |
| Cn1nccc1C(=O)NC12CCC(CC1)Cn1c2nc(C(=O)NCc2ccc(F)cc2)c(O)c1=O [Example 247, 7,10-Ethanopyrimido[1,2-a]azepine-2-carboxamide, N-[(4-fluorophenyl)methyl]-4,6,7,8,9,10-hexahydro-3-hydroxy-10-[[(1-methyl-1H-pyrazol-5-yl)carbonyl]amino]-4-oxo-] | < 0.01 µM |
| O=C(NC(=S)NC12CCC(CC1)Cn1c2nc(C(=O)NCc2ccc(F)cc2)c(O)c1=O)c1ccccc1 [Example 332, 7,10-Ethanopyrimido[1,2-a]azepine-2-carboxamide, 10-[[(benzoylamino)thioxomethyl]amino]-N-[(4-fluorophenyl)methyl]-4,6,7,8,9,10-hexahydro-3-hydroxy-4-oxo-] | 0.01 to 0.1 µM |
| Cc1ncnn1-c1cc(F)ccc1CNC(=O)c1nc2n(c(=O)c1O)CC1CCC2(NS(C)(=O)=O)CC1 [Example 39, N-(4-Fluoro-2-(5-methyl-1H-1,2,4-triazol-1-yl)benzyl)-3-hydroxy-10-((methylsulfonyl)amino)-4-oxo-4,6,7,8,9,10-hexahydro-7,10-ethanopyrimido[1,2-a]azepine-2-carboxamide] | < 0.01 µM |
| Cc1cc(CNC(=O)c2nc3n(c(=O)c2O)CC2CCC3(NC(=O)C(=O)N(C)C)C2)ccc1F (stereo not shown) [Example 196, Ethanediamide, N′-[2-[[[(4-fluoro-3-methylphenyl)methyl]amino]carbonyl]-6,7,8,9-tetrahydro-3-hydroxy-4-oxo-7,10-methanopyrimido[1,2-a]azepin-10(4H)-yl]-N,N-dimethyl-] | < 0.01 µM |
| NC12CCC(Cn3c1nc(C(=O)NCc1ccc(F)cc1)c(O)c3=O)OC2 (stereo not shown) [Example 220, 10-Amino-N-(4-fluorobenzyl)-3-hydroxy-4-oxo-4,6,7,8,9,10-hexahydro-7,10-(epoxymethano)pyrimido[1,2-a]azepine-2-carboxamide] | 0.01 to 0.1 µM |
| CN(C)C(=O)C(=O)NC12CCC(CC1)Cn1c2nc(C(=O)NCc2ccccc2)c(O)c1=O [Example 129, N′-(2-(Benzylcarbamoyl)-3-hydroxy-4-oxo-6,7,8,9-tetrahydro-7,10-ethanopyrimido[1,2-a]azepin-10(4H)-yl)-N,N-dimethylethanediamide] | < 0.01 µM |
| COc1ccc(CNC(=O)c2nc3n(c(=O)c2O)CC2CCC3(NC(=O)C(=O)N(C)C)CC2)cc1 [Example 375] | < 0.01 µM |
| CCOC(=O)C(=O)NC12CCC(CC1)Cn1c2nc(C(=O)NCc2ccc(F)cc2)c(O)c1=O [Example 83, Ethyl((2-((4-fluorobenzyl)carbamoyl)-3-hydroxy-4-oxo-6,7,8,9-tetrahydro-7,10-ethanopyrimido[1,2-a]azepin-10(4H)-yl)amino)(oxo)acetate] | < 0.01 µM |
| CS(=O)(=O)N1CCCC1C(=O)NC12CCC(CC1)Cn1c2nc(C(=O)NCc2ccc(F)cc2)c(O)c1=O (stereo in doubt) [Example 254, 7,10-Ethanopyrimido[1,2-a]azepine-2-carboxamide, N-[(4-fluorophenyl)methyl]-4,6,7,8,9,10-hexahydro-3-hydroxy-10-[[[(2R)-1-(methylsulfonyl)-2-pyrrolidinyl]carbonyl]amino]-4-oxo-] | < 0.01 µM |
| O=C(CN1CCCC1=O)NC12CCC(CC1)Cn1c2nc(C(=O)NCc2ccc(F)cc2)c(O)c1=O [Example 43, N-(4-Fluorobenzyl)-3-hydroxy-4-oxo-10-(((2-oxo-1-pyrrolidinyl)acetyl)amino)-4,6,7,8,9,10-hexahydro-7,10-ethanopyrimido[1,2-a]azepine-2-carboxamide] | < 0.01 µM |
